Several values for one entry are separate records, joined by “and”; a condition that tells them apart may be missing. Equal entries are not always repeated.
Key:
[1] = system: HTLV-1 pX (proviral load) in live cells of PBMCs from HAM cases; assay: PMA-HTLV-1 viability PCR, PBMCs from HAM cases; format: cell-based; design: key to ΔCτ Drug Mean: ΔCτ = CτD−P+ − CτD+P+ (Cτ shift by drug, PMA-treated); settings: N=16
Method: PBMCs from 16 HAM cases frozen and preserved in liquid nitrogen were used.
A PMA stock solution (20 mM, frozen and preserved at −20° C. under light protection) was added to cell samples to yield a final concentration of 50 μM, and the tubes were incubated in a dark place (wrapped in aluminum foil) at room temperature for 5 minutes (each tube was sometimes flicked by fingers for mixing).
A photo-crosslinker and a halogen lamp were always used to perform photo-crosslinking using a household 100-V AC power source. The cell specimen volume was adjusted by appropriately adding PBS to 200 μL and irradiation was carried out for 5 minutes at a position 20 cm away from the halogen lamp in the dark. […] Each sample tube was sometimes flicked by fingers for mixing
Frozen PBMC specimens were thawed in a water bath at 37° C. and washed twice with PBS at 300×g, and then, the pellet was suspended in 1 mL of PBS and placed on ice. The cell concentration was counted by the trypan blue exclusion method using a hemocytometer.
Approximately 5×10^5 to 1×10^6 cells were collected in two Eppendorf tubes and the solution volume was adjusted to 200 μL by adding PBS if appropriate. One of the tubes was subjected to PMA treatment and photo-crosslinking, and the other tube was not treated in the same manner. DNA was extracted from both tubes using DNeasy Blood & Tissue Kits (QIAGEN).
To the remaining liquid of the cell suspension of each cell specimen, approximately 7.5 mL of cell medium RPMI1640 (supplemented with 10% of fetal calf serum and 1% of penicillin-streptomycn) was added to adjust the total volume to 8.0 mL+α. Each mixture was plated in a volume of approximately 2000 μL on a 6-well polystyrene plate such that 4 wells were used per cell specimen.
After adding the drug, each mixture was gently shaken on a shaker and incubation was started at 37° C. in a 5% CO2 incubator.
At T=6 h, about a half volume of the cell suspension of each well was harvested, collected in an Eppendorf tube, and centrifuged at 3,500 rpm×10 min. The supernatant was discarded, and the pellet was resuspended with 1 mL of PBS. Centrifugation was performed again at 3,500 rpm×10 min, and the supernatant was discarded, followed by washing. PBS was added to yield a volume of 200 μL, and all specimens were subjected to PMA treatment and photo-crosslinking. Subsequently, the specimens were washed with PBS again, and DNA was extracted with DNeasy Blood & Tissue Kits (QIAGEN).
The procedures were performed as in the case of T=6 h described in (1-2-5) above. DNA samples were named, for example, “Sample No-Imatinib600 nM-12 h.”
The DNA concentration was measured by ND-1000 (Thermo Fisher Scientific), and DNA was prepared in an amount (10 ng/μL×triplicate or more) sufficient for real-time PCR to be performed in triplicate. DNA was frozen and preserved at −20° C. until use.
According to the protocol (for the PCR system of 25 μL in total) of TaqMan Universal Master Mix II (#4440044, Thermo Fisher Scientific), 20 μM forward and reverse primers, 8 μM TaqMan probes, 2× Universal Master Mix II, and D2 W were mixed. The mixture was pipetted in a volume of 25 μL into each of triplicate wells of a MicroAmp Fast 96-well Reaction Plate (0.1 mL) (REF 4346907, Applied Biosystems) provided with MicroAmp Optical Adhesive Film (P/N 4311971, Applied Biosystems).
A standard dilution series for standard curve creation was prepared from the following five points for pX: NTC (No Template Control); 2 copies/μL (10 copies at 5 μL); 20 copies/μL (100 copies at 5 μL); 200 copies/μL (1000 copies at 5 μL); and […] (10000 copies at 5 μL).
The thermal cycle program was carried out using the StepOne Plus real-time PCR system (Applied Biosystems) and StepOne software ver. 2.3 with 1 cycle in a holding stage at 50° C.×2 minutes and 95° C.×10 minutes and 45 cycles of amplification at 95° C.×15 seconds and 60° C.×1 minute.
Index of the Cτ extension effect by ABL1 inhibitor treatment: ΔCτDrug=CτD−P+−CτD+P+ [Formula 3]

[2] = system: NC-derived non-CD4-PBMCs; settings: 5 μM, 24-hour treatment, FIG. 2 C/D
[3] = system: HAM-derived non-CD4-PBMCs; settings: 5 μM, 24-hour treatment, FIG. 2 C/D
[4] = system: HTLV-1 pX (proviral load) in live cells of PBMCs from AC-derived cases; assay: PMA-HTLV-1 viability PCR, PBMCs from AC-derived cases; format: cell-based
Method: PBMCs (1×10^7 cells) from 14 AC-derived cases frozen and preserved in liquid nitrogen were used.
Specimens frozen and preserved in liquid nitrogen were thawed in a water bath at 37° C. and washed twice with approximately 10 mL of PBS at 300×g during centrifugation for 10 minutes, and resuspended in 1 mL of PBS. The cell concentration was counted by the trypan blue exclusion method. Thereafter, each specimen was divided into two groups such that each group includes approximately 100,000 PBMCs. One of the groups was not subjected to PMA treatment, and the other group was subjected to PMA treatment. The sample groups were named “Sample No-Drug-P−” and “Sample No-Drug-P+,” respectively.
A PMA stock solution was added to the sample named “Sample No-Drug-P+” to yield a final concentration of 50 μM in the manner described in Example 2, occasionally shaken under light protection at room temperature for 5 minutes for PMA treatment, and treated with a photo-crosslinker under a halogen lamp for crosslinking during air-cooling for 5 minutes. Genomic DNA was extracted from both samples including the former sample which was not subjected to PMA treatment using DNeazy Blood & Tissue Kits (Cat No 69504, QIAGEN).
RPMI1640 (supplemented with 10% fetal bovine serum, 1% penicillin, and streptomycin) in a volume of 7 mL+α was added to the cell suspension remaining after preparing the two samples in (4-1-2), followed by vortexing. […] After mixing with a shaker for a short period of time, the cells were cultured in a 5% CO2 incubator.
After T=6 h, each specimen was subjected to PMA treatment and crosslinking, and then, genomic DNA was extracted therefrom according to the method described in Example 2.
PMA treatment and DNA extraction were carried out according to the method described in Example 2. Accordingly, 10 samples of genomic DNA from each AC sample to be tested, that is to say, 140 samples from 14 specimens, were prepared.
In this Example, the methods described in Example 2 were used for DNA concentration measurement, working solution preparation, real-time PCR, and the method for calculating PMA-HTLV-1 viability PCR indexes.
All samples were examined at N=14.

[5] = system: NC-derived CD4+ T cells; settings: 5 μM, 24-hour treatment, FIG. 2 A/B
[6] = read-out: Cmax concentration; based on package inserts / in vivo dynamics data; concentration examined in terms of Cmax; cited from earlier work
[7] = system: HAM-derived CD4+ T cells
[8] = system: HTLV-1 proviral load (PVL); assay: Peripheral blood PVL before and after oral imatinib in an anti-HTLV-1 antibody-positive CML patient with HAM; format: in vivo, human; settings: 2844 copies before drug administration, one patient

Cc1cn(-c2cc(NC(=O)c3ccc(C)c(Nc4nccc(-c5cccnc5)n4)c3)cc(C(F)(F)F)c2)cn1 [nilotinib]
pX decrease rate in live cells (%) Mean ([1]; Nilotinib 30 nM, 6 h): 69.51%
ΔCτ Drug Mean ([1]; Nilotinib 30 nM, 6 h): −2.03
pX decrease rate in live cells (%) Mean ([1]; Nilotinib 30 nM, 12 h): 78.00%
ΔCτ Drug Mean ([1]; Nilotinib 30 nM, 12 h): −2.63
pX decrease rate in live cells (%) Mean ([1]; Nilotinib 3 μM, 6 h): 53.82%
ΔCτ Drug Mean ([1]; Nilotinib 3 μM, 6 h): −0.86
pX decrease rate in live cells (%) Mean ([1]; Nilotinib 3 μM, 12 h): 36.19%
ΔCτ Drug Mean ([1]; Nilotinib 3 μM, 12 h): −1.46
cell death of non-CD4-PBMCs, NC [2]: significantly observed
cell death of non-CD4-PBMCs, HAM [3]: significantly observed
pX decrease rate in live cells (%) Mean ([4]; Nilotinib 30 nM, 6 h, N=14): 53.23%
ΔCτ Drug Mean ([4]; Nilotinib 30 nM, 6 h, N=14): −1.26
pX decrease rate in live cells (%) Mean ([4]; Nilotinib 30 nM, 12 h, N=14): ~71% and 71.38%
ΔCτ Drug Mean ([4]; Nilotinib 30 nM, 12 h, N=14): −1.56
pX decrease rate in live cells (%) Mean ([4]; Nilotinib 30 nM, 12 h, N=14, listed as Nilotinib): 71.38%
pX decrease rate in live cells (%) Mean ([4]; Nilotinib 3 μM, 6 h, N=14): 50.50%
ΔCτ Drug Mean ([4]; Nilotinib 3 μM, 6 h, N=14): −1.05
pX decrease rate in live cells (%) Mean ([4]; Nilotinib 3 μM, 12 h, N=14): 58.56%
ΔCτ Drug Mean ([4]; Nilotinib 3 μM, 12 h, N=14): −1.36
cell death of NC-derived CD4+ T cells [5]: cell death does not occur
Cmax [6]: 3000 nM
cell death of HAM-derived CD4+ T cells [7]: cause cell death to occur

Cc1ccc(NC(=O)c2ccc(CN3CCN(C)CC3)cc2)cc1Nc1nccc(-c2cccnc2)n1 [imatinib]
pX decrease rate in live cells (%) Mean ([1]; Imatinib 600 nM, 6 h): 50.35%
ΔCτ Drug Mean ([1]; Imatinib 600 nM, 6 h): −1.30
pX decrease rate in live cells (%) Mean ([1]; Imatinib 600 nM, 12 h): 66.37%
ΔCτ Drug Mean ([1]; Imatinib 600 nM, 12 h): −1.96
pX decrease rate in live cells (%) Mean ([1]; Imatinib 5 μM, 6 h): 43.37%
ΔCτ Drug Mean ([1]; Imatinib 5 μM, 6 h): −0.99
pX decrease rate in live cells (%) Mean ([1]; Imatinib 5 μM, 12 h): 44.99%
ΔCτ Drug Mean ([1]; Imatinib 5 μM, 12 h): −1.49
peripheral blood PVL ([8]; 1 year and 5 months after drug administration): 448 copies/10^4 PBMCs
peripheral blood PVL ([8]; after 5 months of drug administration, oral 400 then 300 mg/day): 1138 copies
pX decrease rate in live cells (%) Mean ([4]; Imatinib 600 nM, 6 h, N=14): 23.83%
ΔCτ Drug Mean ([4]; Imatinib 600 nM, 6 h, N=14): −0.28
pX decrease rate in live cells (%) Mean ([4]; Imatinib 600 nM, 12 h, N=14): approximately 45%
ΔCτ Drug Mean ([4]; Imatinib 600 nM, 12 h, N=14): −0.98
pX decrease rate in live cells (%) Mean ([4]; Imatinib 600 nM, 12 h, N=14, listed as Imatinib): 45.46%
pX decrease rate in live cells (%) Mean ([4]; Imatinib 5 μM, 6 h, N=14): 51.65%
ΔCτ Drug Mean ([4]; Imatinib 5 μM, 6 h, N=14): −1.45
pX decrease rate in live cells (%) Mean ([4]; Imatinib 5 μM, 12 h, N=14): 58.25%

Source: patent US10772887B2, “Anti-HTLV-1 drug and therapeutic agent for HTLV-1-associated myelopathy/tropical spastic paraparesis (HAM/TSP)” (Kagoshima University, priority 2016, dated 2020)
